Each structure is given as a SMILES string. pIC50: −log10 of the molar value. Counter-ions that a name gives are not always drawn.

Data set [1] is described as follows: Determination of the microsomal half-life / microsomal clearance, rat liver microsomes. It is filed as in vitro ADME. The note with it: 0.5 μM test substance, 0.25 mg of microsomal protein/ml, pH 7.4, 37° C. As for the experimental part: (§1) b) Determination of the Microsomal Half-Life:
(§2) The metabolic stability of the compounds of the invention was determined in the following assay.
(§3) The test substances were incubated in a concentration of 0.5 μM as follows:
(§4) 0.5 μM test substance are preincubated together with liver microsomes from different species (from rat, human or other species) (0.25 mg of microsomal protein/ml) in 0.05 M potassium phosphate buffer of pH 7.4 in microtiter plates at 37° C. for 5 min. The reaction is started by adding NADPH (1 mg/mL). After 0, 5, 10, 15, 20 and 30 min, 50 μl aliquots are removed, and the reaction is immediately stopped and cooled with the same volume of acetonitrile. The samples are frozen until analyzed. The remaining concentration of undegraded test substance is determined by MSMS. The half-life (T½) is determined from the gradient of the signal of test substance/unit time plot, it being possible to calculate the half-life of the test substance, assuming first order kinetics, from the decrease in the concentration of the compound with time. The microsomal clearance (mCl) is calculated from mCl=ln 2/T½/(content of microsomal protein in mg/ml)×1000 [ml/min/mg]

Data set [2] can be described thus: Determination of the microsomal half-life / microsomal clearance, human liver microsomes. The class given is in vitro ADME. The note with it: 0.5 μM test substance, 0.25 mg of microsomal protein/ml, pH 7.4, 37° C. The protocol: as §1, §2, §3, §4
The next data set addresses PDE10A (Homo sapiens (Human), UniProt Q9Y233). Description: Measurement of PDE activity (recombinant PDE, cAMP HTRF). It is filed as biochemical. The note with it: 20 nM cyclic nucleotide substrate, 60 minutes at 29 C. As for the experimental part:
a) Measurement of PDE Activity
The recombinant PDE proteins are used in in vitro enzymatic reaction for measurement of PDE activity. These recombinant proteins, including PDE10A (human, rat and mouse PDE10) and isoforms of PDEs 1, 3, 4, and 5, were purchased from commercial vendor BPS Bioscience. The enzymatic activity of PDEs was determined by cAMP measurement kit from CisBio (IBA) using HTRF technology.
The PDE enzymatic reaction was carried out in assay buffer (20 mM Tris-HCl pH7.5, 10 mM MgCl2, 0.1% bovine serum albumin) containing enzyme and substrate. […] The substrate cyclic nucleotide (cAMP or cGMP) concentration used in the assay was 20 nM for PDE10, and 100 nM for other PDEs. The inhibitory effect of compound was determined by incubating various concentration of inhibitor in the enzymatic assay. […] Next, the compound at varying concentration was mixed with PDE enzyme. The reaction was initiated by addition of cyclic nucleotide substrate, and incubated for 60 minutes at 29 C. The reaction was stopped by addition of lysis buffer from assay kit. The cAMP-d2 and anti-cAMP cryptate in the lysis buffer detected the level of cAMP left from the PDE hydrolysis reaction. […] Thus, IC50 value of inhibitor can be obtained by plotting inhibitor concentration against PDE activity at that concentration.
On the technique in general: Time-resolved FRET reads energy transfer from a long-lived donor to a nearby acceptor.

PDE10A, sequence (Q9Y233 whole entry, species assumed): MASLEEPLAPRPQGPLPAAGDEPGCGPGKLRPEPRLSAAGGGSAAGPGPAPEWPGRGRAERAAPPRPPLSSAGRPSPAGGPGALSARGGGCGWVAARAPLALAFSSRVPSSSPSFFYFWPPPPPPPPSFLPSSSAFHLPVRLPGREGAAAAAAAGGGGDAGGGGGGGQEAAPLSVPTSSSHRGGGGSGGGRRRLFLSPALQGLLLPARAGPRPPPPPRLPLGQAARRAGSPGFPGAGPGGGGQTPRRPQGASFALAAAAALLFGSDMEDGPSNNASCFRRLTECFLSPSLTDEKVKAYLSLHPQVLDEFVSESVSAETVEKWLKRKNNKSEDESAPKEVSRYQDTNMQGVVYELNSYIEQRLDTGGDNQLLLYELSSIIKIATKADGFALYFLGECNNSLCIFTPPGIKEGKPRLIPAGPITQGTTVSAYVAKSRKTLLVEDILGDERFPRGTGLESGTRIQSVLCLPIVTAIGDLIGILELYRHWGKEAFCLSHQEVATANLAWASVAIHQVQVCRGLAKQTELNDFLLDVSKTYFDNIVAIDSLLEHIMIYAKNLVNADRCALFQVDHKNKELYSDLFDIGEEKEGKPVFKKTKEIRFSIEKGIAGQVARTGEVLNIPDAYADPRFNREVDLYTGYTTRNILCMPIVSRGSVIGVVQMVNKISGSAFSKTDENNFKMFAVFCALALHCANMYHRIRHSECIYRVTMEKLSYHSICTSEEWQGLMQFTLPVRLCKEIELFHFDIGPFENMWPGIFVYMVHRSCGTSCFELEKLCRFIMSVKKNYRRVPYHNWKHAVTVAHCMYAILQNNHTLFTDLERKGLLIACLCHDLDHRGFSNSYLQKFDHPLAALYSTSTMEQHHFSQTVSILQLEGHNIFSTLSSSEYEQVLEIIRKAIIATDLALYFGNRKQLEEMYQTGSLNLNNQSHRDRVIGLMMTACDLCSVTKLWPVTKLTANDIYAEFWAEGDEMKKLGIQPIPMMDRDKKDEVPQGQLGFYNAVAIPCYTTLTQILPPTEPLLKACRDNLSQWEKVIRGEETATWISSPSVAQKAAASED

Turning to `CCn1cc(C(=O)N[C@H](C)c2ccc(C)cc2)c2cc(OC)c(OC)cc2c1=O` [Example 314, 2-Ethyl-6,7-dimethoxy-1-oxo-N-[(1R)-1-(p-tolyl)ethyl]isoquinoline-4-carboxamide], in data set [1], the “Rat mCl” value is reported as “++ (<100 μl min^−1 mg^−1)”. In addition, the “Human mCl” value in data set [2] is “++ (<100 μl min^−1 mg^−1)”.
With `CCn1cc(C(=O)NCc2ccc(C(F)F)cc2)c2cc(OC)c(OC)cc2c1=O` [Example 315, N-[[4-(Difluoromethyl)phenyl]methyl]-2-ethyl-6,7-dimethoxy-1-oxo-isoquinoline-4-carboxamide], in data set [1], the “Rat mCl” value is on record as “++ (<100 μl min^−1 mg^−1)”. In data set [2], the “Human mCl” value is reported as “++ (<100 μl min^−1 mg^−1)”.
In general, pIC50 refers to −log10 of the IC50, conventionally taken in molar units. `CCn1cc(C(=O)NCc2ccc(C)cc2OCC(F)(F)F)c2cc(OC)c(OC)cc2c1=O` [Example 288, 2-Ethyl-6,7-dimethoxy-N-[[4-methyl-2-(2,2,2-trifluoroethoxy)phenyl]methyl]-1-oxo-isoquinoline-4-carboxamide]: at PDE10A, the pIC50 is 6.30 to 6.70.
As for `CCn1cc(C(=O)NCc2ccc(C)c(F)c2F)c2cc(OC)c(OC)cc2c1=O` [Example 278, N-[(2,3-Difluoro-4-methyl-phenyl)methyl]-2-ethyl-6,7-dimethoxy-1-oxo-isoquinoline-4-carboxamide], on PDE10A, the negative logarithm of the IC50 (pIC50) is 6.30 to 6.70.
Consider `COc1cc2c(C(=O)NC3CCc4ccccc43)cn(C3CC3)c(=O)c2cc1OC` (stereo not drawn) [Example 196, 2-Cyclopropyl-6,7-dimethoxy-1-oxo-1,2-dihydro-isoquinoline-4-carboxylic acid indan-1-ylamide], for which, in data set [1], the “Rat mCl” value is “++ (<100 μl min^−1 mg^−1)”. Moreover, in data set [2], the “Human mCl” value was “++ (<100 μl min^−1 mg^−1)”.
For `CCC(CC)n1cc(C(=O)NCc2sccc2C)c2cc(OC)c(OC)cc2c1=O` [Example 258, 6,7-Dimethoxy-N-((3-methylthiophen-2-yl)methyl)-1-oxo-2-(pentan-3-yl)-1,2-dihydroisoquinoline-4-carboxamide], on PDE10A, the pIC50 is 6.70 to 7.00.
`CCC(CC)n1cc(C(=O)NCc2ccccc2CN(C)C)c2cc(OC)c(OC)cc2c1=O` [Example 187, 2-(1-Ethyl-propyl)-6,7-dimethoxy-1-oxo-1,2-dihydro-isoquinoline-4-carboxylic acid 2-dimethylaminomethyl-benzylamide hydrochloride]: on PDE10A, the pIC50 is 6.30 to 6.70.
For the compound `CCn1cc(C(=O)NC2CCc3c(C)cccc32)c2cc(OC)c(OC)cc2c1=O` (stereo not drawn) [Example 174, 2-Ethyl-6,7-dimethoxy-N-(4-methyl-2,3-dihydro-1H-inden-1-yl)-1-oxo-1,2-dihydroisoquinoline-4-carboxamide], at PDE10A, the pIC50 was 6.30 to 6.70.
As for `CCn1cc(C(=O)NCc2ccc(C(C)C)cc2)c2cc(OC)c(OC)cc2c1=O` [Example 312, 2-Ethyl-N-[(4-isopropylphenyl)methyl]-6,7-dimethoxy-1-oxo-isoquinoline-4-carboxamide], the “Rat mCl” value in data set [1] was “++ (<100 μl min^−1 mg^−1)”. The “Human mCl” value in data set [2] is “+ (100-220 μl min^−1 mg^−1)”.
In the case of `CCn1cc(C(=O)Nc2cccc(C)c2)c2cc(OC)c(OC)cc2c1=O` [Example 145, 2-Ethyl-6,7-dimethoxy-1-oxo-N-m-tolyl-1,2-dihydroisoquinoline-4-carboxamide], the negative-log IC50 (pIC50) on PDE10A was 6.30 to 6.70.
`CCC(CC)n1cc(C(=O)NCc2ccc(C#N)o2)c2cc(OC)c(OC)cc2c1=O` [Example 264, N-((5-Cyanofuran-2-yl)methyl)-6,7-dimethoxy-1-oxo-2-(pentan-3-yl)-1,2-dihydroisoquinoline-4-carboxamide]: the pIC50 at PDE10A is 6.30 to 6.70.
Take `CCn1cc(C(=O)NC2CCc3sccc32)c2cnc(OC)cc2c1=O` (stereo not drawn) [Example 230, 2-Ethyl-7-methoxy-1-oxo-1,2-dihydro-[2,6]naphthyridine-4-carboxylic acid (5,6-dihydro-4H-cyclopenta[b]thiophen-4-yl)-amide]: the negative logarithm of the IC50 (pIC50) on PDE10A was 6.70 to 7.00.
As for `CCn1cc(C(=O)NC2CCc3ccc(OC)cc32)c2cc(OC)c(OC)cc2c1=O` (stereo not drawn) [Example 176, 2-Ethyl-6,7-dimethoxy-N-(6-methoxy-2,3-dihydro-1H-inden-1-yl)-1-oxo-1,2-dihydroisoquinoline-4-carboxamide], at PDE10A, the pIC50 is 6.30 to 6.70.
`CCn1cc(C(=O)NCc2ccc(F)cc2)c2cc(OC)c(OC)cc2c1=O` [Example 32, 2-Ethyl-6,7-dimethoxy-1-oxo-1,2-dihydro-isoquinoline-4-carboxylic acid 4-fluoro-benzylamide]: the negative logarithm of the IC50 (pIC50) at PDE10A was 6.30 to 6.70.
Consider `CCn1cc(C(=O)NC2CCc3sccc32)c2cc(OC)c(OC)cc2c1=O` (single isomer, unassigned; (+)) [Example 204, (+)-2-Ethyl-6,7-dimethoxy-1-oxo-1,2-dihydro-isoquinoline-4-carboxylic acid (5,6-dihydro-4H-cyclopenta[b]thiophen-4-yl)-amide], for which, in data set [1], the “Rat mCl” value was “++ (<100 μl min^−1 mg^−1)”. Moreover, in data set [2], the “Human mCl” value was “+ (100-220 μl min^−1 mg^−1)”.
Consider `CCn1cc(C(=O)NCc2ccc(C)cc2OC(C)(C)CC)c2cc(OC)c(OC)cc2c1=O` [Example 277, N-[[2-(1,1-Dimethylpropoxy)-4-methyl-phenyl]methyl]-2-ethyl-6,7-dimethoxy-1-oxo-isoquinoline-4-carboxamide], for which the negative logarithm of the IC50 (pIC50) at PDE10A is 6.30 to 6.70.
In the case of `CCn1cc(C(=O)NCc2ccc(C(F)(F)F)cc2)c2cc(OC)c(OC)cc2c1=O` [Example 310, 2-Ethyl-6,7-dimethoxy-1-oxo-N-[[4-(trifluoromethyl)phenyl]-methyl]isoquinoline-4-carboxamide], in data set [1], the “Rat mCl” value is on record as “++ (<100 μl min^−1 mg^−1)”. Moreover, the “Human mCl” value in data set [2] was “++ (<100 μl min^−1 mg^−1)”.
For the compound `CCC(CC)n1cc(C(=O)NCc2ccc(C)s2)c2cc(OC)c(OC)cc2c1=O` [Example 237, 6,7-Dimethoxy-N-((5-methylthiophen-2-yl)methyl)-1-oxo-2-(pentan-3-yl)-1,2-dihydroisoquinoline-4-carboxamide], the pIC50 on PDE10A was 6.70 to 7.00.
With `CCC(CC)n1cc(C(=O)NCc2cscn2)c2cc(OC)c(OC)cc2c1=O` [Example 203, 2-(1-Ethyl-propyl)-6,7-dimethoxy-1-oxo-1,2-dihydro-isoquinoline-4-carboxylic acid (thiazol-4-ylmethyl)-amide], the “Rat mCl” value in data set [1] is “++ (<100 μl min^−1 mg^−1)”. The “Human mCl” value in data set [2] is recorded as “++ (<100 μl min^−1 mg^−1)”.
As to `CCn1cc(C(=O)NCc2ccccc2OC)c2cc(OC)c(OC)cc2c1=O` [Example 140], on PDE10A, the negative logarithm of the IC50 (pIC50) is 6.30 to 6.70.
Still for that read-out and setting: under `CCn1cc(C(=O)NCc2ccccc2CN2CCOCC2)c2cc(OC)c(OC)cc2c1=O` [Example 168, 2-Ethyl-6,7-dimethoxy-N-(2-(morpholinomethyl)benzyl)-1-oxo-1,2-dihydroiso-quinoline-4-carboxamide] stands 6.30 to 6.70.
For the compound `CCn1cc(C(=O)NCc2cscn2)c2cc(OC)c(OC)cc2c1=O` [Example 309, 2-Ethyl-6,7-dimethoxy-1-oxo-N-(thiazol-4-ylmethyl)isoquinoline-4-carboxamide], on PDE10A, the pIC50 is 6.30 to 6.70. For the same compound, the “Human mCl” value in data set [2] is recorded as “++ (<100 μl min^−1 mg^−1)”.
As to `CCn1cc(C(=O)NCc2ccccn2)c2cc(OC)c(OC)cc2c1=O` [Example 149, 2-Ethyl-6,7-dimethoxy-1-oxo-N-(pyridin-2-ylmethyl)-1,2-dihydroisoquinoline-4-carboxamide], the pIC50 on PDE10A was 6.30 to 6.70.
Take `CCn1cc(C(=O)NCc2ccc(C)cc2OC(C)(C)C)c2cc(OC)c(OC)cc2c1=O` [Example 276, N-[(2-tert-Butoxy-4-methyl-phenyl)methyl]-2-ethyl-6,7-dimethoxy-1-oxo-isoquinoline-4-carboxamide]: at PDE10A, the pIC50 is 6.30 to 6.70.
Turning to `CCn1cc(C(=O)Nc2ccccc2OC)c2cc(OC)c(OC)cc2c1=O` [Example 146, 2-Ethyl-6,7-dimethoxy-N-(2-methoxyphenyl)-1-oxo-1,2-dihydroisoquinoline-4-carboxamide], the pIC50 on PDE10A was 6.30 to 6.70.
On to `CCn1cc(C(=O)N[C@@H](C)c2ccc(C)cc2)c2cc(OC)c(OC)cc2c1=O` [Example 311, 2-Ethyl-6,7-dimethoxy-1-oxo-N-[(1S)-1-(p-tolyl)ethyl]isoquinoline-4-carboxamide], for which, on PDE10A, the pIC50 was 6.30 to 6.70. In addition, the “Human mCl” value in data set [2] is given as “++ (<100 μl min^−1 mg^−1)”.
As to `CCn1cc(C(=O)NCc2ccncn2)c2cc(OC)c(OC)cc2c1=O` [Example 139, 2-Ethyl-6,7-dimethoxy-1-oxo-N-(pyrimidin-4-ylmethyl)-1,2-dihydroisoquinoline-4-carboxamide], the pIC50 at PDE10A is 6.30 to 6.70.

Source of the values: US9856220B2 (AbbVie Deutschland GmbH & Co. KG, priority 2011, dated 2018).
